Test results: patent publication US20230250095A1, “BENZIMIDAZOLE DERIVATIVES, PREPARATION METHOD THEREFOR AND MEDICAL USE THEREOF” (TUOJIE BIOTECH(SHANGHAI) CO., LTD., priority 2020, published 2023)

System: not listed separately
Test: In vitro metabolic stability in human hepatocytes
Format: in vitro ADME
Conditions: human hepatocytes 1×10^6 cells/mL, 37° C., up to 120 min; read-out: Intrinsic clearance (uL/min/10^6 cells)
Protocol: The concentrations of the test compounds in the reaction system were determined by LC/MS/MS, so that the intrinsic clearance of the test compounds was calculated, and the in vitro metabolic stability in human hepatocytes was evaluated.
247.5 μL of a mixed solution of human hepatocytes at 1×10^6 cells/mL (purchased from BioreclamationIVT, Cat. No. S01205) and 2.5 μL of 100 μM test compound or positive control was added to a plate to initiate the reaction. The plate was incubated at 37° C. and 600 rpm. 20 μL of incubation system was transferred to a stop plate at 0.5 min, 5 min, 15 min, 30 min, 45 min, 60 min, 80 min, 100 min and 120 min. Then, the mixture was vortexed for 2 min to be mixed well. The stop plate was centrifuged at 4000 rpm for 20 min. 40 μL of supernatant of each compound was transferred to a 96-well sample template, after which 160 μL of pure water was added to dilute the samples.
The resulting samples were quantified from ion chromatogram. The residual rate was calculated from the peak area of the test compound or the positive control. Slope k was determined by linear regression of the […] of residual rates versus incubation time using Microsoft Excel.
Intrinsic clearance (in vitro CLint, μL/min/10^6 cells) was calculated from the slope value according to the following equation:
V=incubation volume (0.25 mL);
N=number of cells per well (0.25×10^6 cells)

hepatocyte CLint at 1 μM	Structure (SMILES)
4.1 µL/min/1e6 cells	CCC(=O)N1CCO[C@@H](Cn2c(-c3c(Cl)cc4c(c3F)OCC(=O)N4)nc3cc(C)ccc32)C1 [Compound 17, (S)-6-chloro-8-fluoro-7-(5-methyl-1-((4-propionylmorpholin-2-yl)methyl)-1H-benzo[d]imidazol-2-yl)-2H-benzo[b][1,4]oxazin-3(4H)-one]

Biological target: T1, hP2X2/3 (Homo sapiens, UniProt P56373+Q9UBL9)
T1 construct: host or cells: 1321N1 cells
T1 sequence (Q9UBL9 1-471): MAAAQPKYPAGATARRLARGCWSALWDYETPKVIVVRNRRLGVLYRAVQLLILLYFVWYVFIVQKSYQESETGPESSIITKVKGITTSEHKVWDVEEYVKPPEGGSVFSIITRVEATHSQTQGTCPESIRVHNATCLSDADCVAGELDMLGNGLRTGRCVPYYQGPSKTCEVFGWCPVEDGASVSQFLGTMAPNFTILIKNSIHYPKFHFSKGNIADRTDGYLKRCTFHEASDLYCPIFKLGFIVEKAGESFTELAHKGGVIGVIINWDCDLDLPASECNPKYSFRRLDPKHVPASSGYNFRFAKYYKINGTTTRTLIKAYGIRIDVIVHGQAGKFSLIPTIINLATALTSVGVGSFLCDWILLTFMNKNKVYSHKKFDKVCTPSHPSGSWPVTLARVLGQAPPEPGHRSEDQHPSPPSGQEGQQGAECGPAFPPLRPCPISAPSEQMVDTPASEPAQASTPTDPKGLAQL
T1 sequence (P56373 1-397): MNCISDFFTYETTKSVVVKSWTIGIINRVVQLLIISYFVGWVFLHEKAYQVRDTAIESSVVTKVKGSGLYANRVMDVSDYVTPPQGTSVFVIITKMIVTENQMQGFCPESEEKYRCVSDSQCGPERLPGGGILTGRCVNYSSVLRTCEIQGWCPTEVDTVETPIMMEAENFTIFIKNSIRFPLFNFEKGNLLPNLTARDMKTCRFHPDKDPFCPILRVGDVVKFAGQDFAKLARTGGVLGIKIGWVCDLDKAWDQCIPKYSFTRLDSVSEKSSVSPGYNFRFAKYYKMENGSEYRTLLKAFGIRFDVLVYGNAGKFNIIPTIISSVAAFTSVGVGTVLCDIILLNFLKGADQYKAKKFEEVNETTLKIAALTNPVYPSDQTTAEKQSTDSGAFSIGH
Test: FLIPR calcium flux assay, antagonistic activity against hP2X2/3 receptor
Format: cell-based
Conditions: 1321N1/hP2X2/3 cells, agonist α,β-meATP 1000 nM
Protocol: (§1) The compounds were screened for antagonistic activity against hP2X3 and hP2X2/3 receptors (changes in calcium flux signals represent the effect of the compounds on ion channels) by an FLIPR assay.
(§2) 1321N1 cells (adherent cells) stably transfected with hP2X3 and hP2X2/3 receptors were digested, centrifuged, resuspended in a plating medium (DMEM+10% DFBS) and counted, adjusted to 2×10^5 cells/mL. The cells were seeded in a 384-well assay plate at 50 μL/well, and incubated in an incubator at 37° C. with 5% CO2 for 16-24 h. Test compounds (20 mM DMSO stock solution) that were 180 times the desired concentration were prepared with DMSO, and added to a 384-well compound plate at 500 nL/well. Then, each well was supplemented with 30 μL of FLIPR buffer (lx HBSS containing 1.26 mM Ca^2++2 mM CaCl2)+20 mM HEPES), and the mixture was shaken for 20-40 min to be mixed well. The agonist α,β-meATP (final concentration of 500 nM for hP2X3 cells and final concentration of 1000 nM for hP2X2/3 cells) that was 3 times the desired concentration was prepared with an FLIPR buffer, and added to another 384-well compound plate at 35 μL/well. The cell plate in which cells had been plated and cultured for 16-24 h was taken out, and the cell supernatant was removed by pipetting. 30 μL of dye (FLIPR® calcium 4 assay kit, diluted with an FLIPR buffer) was added to each well, and the plate was incubated for 1 h. 15 μL of the compound was added to each well containing cells (dosing using an FLIPR instrument), and after 15 min, 22.5 μL of agonist was added to each well and the fluorescent signal was detected (excitation wavelength: 470-495 nm, emission wavelength: 515-575 nm). With the difference between the peak and the trough of the signal taken as the basic data, the data of the highest concentration of the positive drug taken as the 100% inhibition rate, and the data of DMSO taken as the 0% inhibition rate, the inhibition effect curves of the compounds were fitted on the software Graphpad Prism 6 and IC50 values were calculated.

IC50	Structure (SMILES)
3.5 µM	CCC(=O)N1CCO[C@@H](Cn2c(-c3c(Cl)cc4c(c3F)OCC(=O)N4)nc3cc(C)ccc32)C1 [Compound 17, (S)-6-chloro-8-fluoro-7-(5-methyl-1-((4-propionylmorpholin-2-yl)methyl)-1H-benzo[d]imidazol-2-yl)-2H-benzo[b][1,4]oxazin-3(4H)-one]

Biological target: T2, hP2X3 (Homo sapiens, UniProt P56373)
T2 construct: host or cells: 1321N1 cells
T2 sequence (P56373 1-397): T1 sequence (P56373 1-397)
Test: FLIPR calcium flux assay, antagonistic activity against hP2X3 receptor
Format: cell-based
Conditions: 1321N1/hP2X3 cells, agonist α,β-meATP 500 nM
Protocol: as §1, §2

IC50	Structure (SMILES)
100 nM	CC(=O)N1CCO[C@@H](Cn2c(-c3c(F)cc(N4CCCC4=O)cc3F)nc3cc(C(F)F)ccc32)C1 [Compound 5, (S)-1-(4-(1-((4-acetylmorpholin-2-yl)methyl)-5-(difluoromethyl)-1H-benzo[d]imidazol-2-yl)-3,5-difluorophenyl)pyrrolidin-2-one]
> 10000 nM	CNC(=O)c1cc(F)c(-c2nc3cc(C)cnc3n2C[C@H]2CN(C(=O)OC)CCO2)c(F)c1 [Compound 6, Methyl (S)-2-((2-(2,6-difluoro-4-(methylcarbamoyl)phenyl)-6-methyl-3H-imidazo[4,5-b]pyridin-3-yl)methyl)morpholine-4-carboxylate]
5840 nM	CNC(=O)c1cc(F)c(-c2nc3nc(C)ccc3n2C[C@H]2CN(C(=O)OC)CCO2)c(F)c1 [Compound 7, Methyl (S)-2-((2-(2,6-difluoro-4-(methylcarbamoyl)phenyl)-5-methyl-1H-imidazo[4,5-b]pyridin-1-yl)methyl)morpholine-4-carboxylate]
> 10000 nM	CNC(=O)c1cc(F)c(-c2nc3cc(C)ncc3n2C[C@H]2CN(C(=O)OC)CCO2)c(F)c1 [Compound 8, Methyl (S)-2-((2-(2,6-difluoro-4-(methylcarbamoyl)phenyl)-6-methyl-3H-imidazo[4,5-c]pyridin-3-yl)methyl)morpholine-4-carboxylate]
79.4 nM	CC(=O)N1CCO[C@@H](Cn2c(-c3c(F)cc(N4CCCC4=O)cc3Cl)nc3cc(C)c(F)cc32)C1 [Compound 11, (S)-1-(4-(1-((4-acetylmorpholin-2-yl)methyl)-6-fluoro-5-methyl-1H-benzo[d]imidazol-2-yl)-3-chloro-5-fluorophenyl)pyrrolidin-2-one]
87.7 nM	CC(=O)N1CCO[C@@H](Cn2c(-c3c(F)cc(N4CCCC4=O)cc3Cl)nc3cc(Cl)c(F)cc32)C1 [Compound 12, (S)-1-(4-(1-((4-acetylmorpholin-2-yl)methyl)-5-chloro-6-fluoro-1H-benzo[d]imidazol-2-yl)-3-chloro-5-fluorophenyl)pyrrolidin-2-one]
766 nM	CC(=O)N1CCO[C@@H](Cn2c(-c3c(F)cc(N4CCCC4=O)cc3F)nc3cc(Cl)cc(F)c32)C1 [Compound 13, (S)-1-(4-(1-((4-acetylmorpholin-2-yl)methyl)-5-chloro-7-fluoro-1H-benzo[d]imidazol-2-yl)-3,5-difluorophenyl)pyrrolidin-2-one]
85.1 nM	Cc1ccc2c(c1)nc(-c1c(F)cc(N3CCCC3=O)cc1Cl)n2C[C@H]1CN(C(=O)C2CC2)CCO1 [Compound 15, (S)-1-(3-chloro-4-(1-((4-(cyclopropylcarbonyl)morpholin-2-yl)methyl)-5-methyl-1H-benzo[d]imidazol-2-yl)-5-fluorophenyl)pyrrolidin-2-one]
70.5 nM	Cc1ccc2c(c1)nc(-c1c(F)cc(N3CCCC3=O)cc1Cl)n2C[C@H]1CN(C(=O)CC(F)(F)F)CCO1 [Compound 16, (S)-1-(3-chloro-5-fluoro-4-(5-methyl-1-((4-(3,3,3-trifluoropropionyl)morpholin-2-yl)methyl)-1H-benzo[d]imidazol-2-yl)phenyl)pyrrolidin-2-one]
45.3 nM	CCC(=O)N1CCO[C@@H](Cn2c(-c3c(Cl)cc4c(c3F)OCC(=O)N4)nc3cc(C)ccc32)C1 [Compound 17, (S)-6-chloro-8-fluoro-7-(5-methyl-1-((4-propionylmorpholin-2-yl)methyl)-1H-benzo[d]imidazol-2-yl)-2H-benzo[b][1,4]oxazin-3(4H)-one]
